Results as given in ChEMBL document CHEMBL4507265 (2021).

Key:
[1] = biological target: 5-hydroxytryptamine receptor 1E (Homo sapiens) (UniProt P28566); conditions: Compound concentration 10.0 uM
[2] = GPCRScan assay: inhibition of GABA/PBR; parameters: species or system Rattus norvegicus; radioligand conc. used [nm] 0.3 – 2.0, parental cells brain tissue
[3] = biological target: Alpha-2C adrenergic receptor (Homo sapiens, UniProt P18825); experiment: GPCRScan assay: inhibition of Alpha2C; parameters: radioligand conc. used [nm] 0.5 – 1.0, parental cells stable MDCK
[4] = biological target: Voltage-dependent N-type calcium channel subunit alpha-1B (Homo sapiens) (UniProt Q00975); experiment: Inhibition of Calcium Channel N-Type at 10 µM in the Eurofins-Panlabs radioligand binding assay (Eurofins_assay_216000); conditions: Rattus norvegicus; Compound concentration 10.0 uM
[5] = biological target: Substance-P receptor (Homo sapiens) (UniProt P25103); experiment: Inhibition of Tachykinin NK1 at 10 µM in the Eurofins-Panlabs radioligand binding assay (Eurofins_assay_255520); parameters: ligand concentration 0.8 nM; conditions: Compound concentration 10.0 uM
Substance-P receptor (Homo sapiens), sequence (P25103 whole entry): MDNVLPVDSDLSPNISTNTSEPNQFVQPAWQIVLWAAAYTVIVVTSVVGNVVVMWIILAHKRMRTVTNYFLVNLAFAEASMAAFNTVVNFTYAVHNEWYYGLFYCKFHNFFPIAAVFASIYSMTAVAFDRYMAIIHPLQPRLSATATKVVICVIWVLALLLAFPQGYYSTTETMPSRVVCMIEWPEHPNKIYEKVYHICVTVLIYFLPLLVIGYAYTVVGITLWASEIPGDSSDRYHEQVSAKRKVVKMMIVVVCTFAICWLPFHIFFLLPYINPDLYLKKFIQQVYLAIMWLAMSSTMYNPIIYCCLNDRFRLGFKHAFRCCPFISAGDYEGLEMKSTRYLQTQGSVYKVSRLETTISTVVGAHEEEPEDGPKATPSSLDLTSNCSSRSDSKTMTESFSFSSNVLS

[6] = biological target: Gamma-aminobutyric acid type B receptor subunit 1 (Homo sapiens) (UniProt Q9UBS5); experiment: Inhibition of GABAB1A at compound concentration of 10.0 uM in the Eurofins-Panlabs radioligand binding assay (Eurofins_assay_228610); parameters: ligand concentration 4 nM; conditions: Compound concentration 10.0 uM
Mus musculus = species: Mus musculus; experiment: Inhibition of Interleukin IL-1 at 10 µM in the Eurofins-Panlabs radioligand binding assay (Eurofins_assay_243520); parameters: ligand concentration 0.1 nM; conditions: Compound concentration 10.0 uM
[7] = biological target: Sodium-dependent dopamine transporter (Homo sapiens) (UniProt Q01959)
Sodium-dependent dopamine transporter (Homo sapiens), sequence (Q01959 whole entry): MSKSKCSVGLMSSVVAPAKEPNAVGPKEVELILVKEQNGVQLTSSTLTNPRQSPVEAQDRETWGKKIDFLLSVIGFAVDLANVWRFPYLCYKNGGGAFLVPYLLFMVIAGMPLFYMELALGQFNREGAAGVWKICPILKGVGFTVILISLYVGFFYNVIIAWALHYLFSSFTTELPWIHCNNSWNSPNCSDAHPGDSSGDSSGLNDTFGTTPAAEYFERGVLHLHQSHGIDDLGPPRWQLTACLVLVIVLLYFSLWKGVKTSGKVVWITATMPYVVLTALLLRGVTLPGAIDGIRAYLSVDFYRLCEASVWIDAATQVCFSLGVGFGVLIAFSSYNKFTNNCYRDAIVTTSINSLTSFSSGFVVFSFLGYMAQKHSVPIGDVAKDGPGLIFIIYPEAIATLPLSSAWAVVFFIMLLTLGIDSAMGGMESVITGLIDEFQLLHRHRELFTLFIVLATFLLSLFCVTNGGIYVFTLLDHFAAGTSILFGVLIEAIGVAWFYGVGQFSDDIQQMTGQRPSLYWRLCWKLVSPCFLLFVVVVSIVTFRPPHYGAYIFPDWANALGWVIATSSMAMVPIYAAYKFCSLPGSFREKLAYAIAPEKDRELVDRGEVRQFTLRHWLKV

[8] = biological target: Prostaglandin E2 receptor EP4 subtype (Homo sapiens) (UniProt P35408); experiment: Inhibition of Prostanoid EP4 at 10 µM in the Eurofins-Panlabs radioligand binding assay (Eurofins_assay_268420); parameters: ligand concentration 1 nM; conditions: Compound concentration 10.0 uM
[9] = biological target: Beta-2 adrenergic receptor (Homo sapiens) (UniProt P07550); conditions: Compound concentration 10.0 uM
Beta-2 adrenergic receptor (Homo sapiens), sequence (P07550 whole entry, looked up): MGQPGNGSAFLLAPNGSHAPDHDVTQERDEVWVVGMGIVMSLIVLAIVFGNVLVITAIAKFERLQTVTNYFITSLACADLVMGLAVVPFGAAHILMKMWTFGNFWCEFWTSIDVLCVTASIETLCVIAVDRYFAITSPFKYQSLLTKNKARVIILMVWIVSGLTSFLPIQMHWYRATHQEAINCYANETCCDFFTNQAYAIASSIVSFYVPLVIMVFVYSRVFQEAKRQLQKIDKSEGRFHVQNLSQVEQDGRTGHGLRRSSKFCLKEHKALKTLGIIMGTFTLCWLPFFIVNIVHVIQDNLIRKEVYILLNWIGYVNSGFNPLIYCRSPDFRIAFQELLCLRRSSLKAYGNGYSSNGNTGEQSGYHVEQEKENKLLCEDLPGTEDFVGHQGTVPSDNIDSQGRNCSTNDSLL

[10] = biological target: T1, Muscarinic acetylcholine receptor M1 (Homo sapiens) (UniProt P11229); conditions: Compound concentration 10.0 uM
T1 sequence (whole entry): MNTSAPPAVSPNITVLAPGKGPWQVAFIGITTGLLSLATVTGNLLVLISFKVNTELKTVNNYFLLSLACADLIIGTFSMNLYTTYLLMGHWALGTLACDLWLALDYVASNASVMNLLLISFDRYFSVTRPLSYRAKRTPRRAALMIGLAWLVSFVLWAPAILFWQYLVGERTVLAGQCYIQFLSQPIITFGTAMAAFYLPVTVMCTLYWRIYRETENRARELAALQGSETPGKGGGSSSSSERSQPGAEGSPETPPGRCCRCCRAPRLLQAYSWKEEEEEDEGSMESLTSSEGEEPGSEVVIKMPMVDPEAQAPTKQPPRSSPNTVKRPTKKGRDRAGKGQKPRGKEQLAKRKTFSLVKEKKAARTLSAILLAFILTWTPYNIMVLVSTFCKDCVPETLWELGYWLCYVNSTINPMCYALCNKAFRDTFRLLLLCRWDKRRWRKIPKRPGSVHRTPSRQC

[11] = biological target: Platelet-activating factor receptor (Homo sapiens) (UniProt P25105); experiment: Inhibition of Platelet Activating Factor (PAF) at 10 µM in the Eurofins-Panlabs radioligand binding assay (Eurofins_assay_265010); conditions: Compound concentration 10.0 uM
Platelet-activating factor receptor (Homo sapiens), sequence (P25105 whole entry): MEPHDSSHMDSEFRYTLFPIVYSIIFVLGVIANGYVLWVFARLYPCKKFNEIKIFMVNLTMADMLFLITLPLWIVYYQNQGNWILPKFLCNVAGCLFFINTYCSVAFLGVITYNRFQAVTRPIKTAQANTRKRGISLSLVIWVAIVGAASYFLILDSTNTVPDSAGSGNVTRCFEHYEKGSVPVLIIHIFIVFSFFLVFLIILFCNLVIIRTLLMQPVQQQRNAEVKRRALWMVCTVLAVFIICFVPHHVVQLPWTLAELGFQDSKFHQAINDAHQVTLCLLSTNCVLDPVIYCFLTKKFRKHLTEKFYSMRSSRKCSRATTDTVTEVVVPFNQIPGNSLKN

[12] = biological target: Cysteinyl leukotriene receptor 1 (Homo sapiens) (UniProt Q9Y271); experiment: Inhibition of Leukotriene, Cysteinyl CysLT1 at 10 µM in the Eurofins-Panlabs radioligand binding assay (Eurofins_assay_250460); parameters: ligand concentration 0.3 nM, non-specific ligand with concentration 0.3 µM Leukotriene D4, incubation time 30 min, incubation temperature 25 °C; conditions: Compound concentration 10.0 uM
[13] = biological target: L-type calcium channel, benzothiazepine site (Cav1.2 alpha-1C) (Homo sapiens, UniProt Q13936); experiment: Inhibition of Calcium Channel L-Type, Benzothiazepine at 10 µM in the Eurofins-Panlabs radioligand binding assay (Eurofins_assay_214510); parameters: ligand concentration 2 nM, non-specific ligand with concentration 10 µM Diltiazem, incubation time 3h, incubation temperature 4 °C; conditions: male, Wistar, rat, rat whole brain preparation, probe [3H] Diltiazem, 2 nM; compound concentration 10 uM; target entry is the homologue from another species
[14] = biological target: 5-hydroxytryptamine receptor 2C (Homo sapiens, UniProt P28335); experiment: GPCRScan assay: inhibition of 5-HT2C; parameters: radioligand conc. used [nm] 1.0 – 2.5, parental cells HEK T
5-hydroxytryptamine receptor 2C, sequence (P28335 whole entry): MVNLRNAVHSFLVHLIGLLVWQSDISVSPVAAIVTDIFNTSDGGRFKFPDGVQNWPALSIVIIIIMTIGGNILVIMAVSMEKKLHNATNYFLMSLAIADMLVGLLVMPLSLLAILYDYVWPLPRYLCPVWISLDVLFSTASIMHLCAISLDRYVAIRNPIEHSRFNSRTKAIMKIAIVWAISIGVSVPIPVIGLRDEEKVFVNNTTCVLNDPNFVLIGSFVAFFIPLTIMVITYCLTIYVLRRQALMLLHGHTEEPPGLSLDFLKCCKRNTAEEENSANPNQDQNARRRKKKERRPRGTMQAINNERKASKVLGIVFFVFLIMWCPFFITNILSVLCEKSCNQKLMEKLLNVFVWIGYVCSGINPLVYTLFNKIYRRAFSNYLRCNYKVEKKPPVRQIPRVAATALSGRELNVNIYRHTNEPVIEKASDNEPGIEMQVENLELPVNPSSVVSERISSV

[15] = biological target: Sigma non-opioid intracellular receptor 1 (Homo sapiens) (UniProt Q99720); experiment: Inhibition of Sigma 1 at 10 µM in the Eurofins-Panlabs radioligand binding assay (Eurofins_assay_278110); parameters: ligand concentration 8 nM; conditions: Compound concentration 10.0 uM
[16] = biological target: Sodium-dependent serotonin transporter (Homo sapiens) (UniProt P31645); conditions: Compound concentration 10.0 uM
[17] = biological target: Beta-1 adrenergic receptor (Homo sapiens) (UniProt P08588); conditions: Compound concentration 10.0 uM
Beta-1 adrenergic receptor (Homo sapiens), sequence (P08588 whole entry, looked up): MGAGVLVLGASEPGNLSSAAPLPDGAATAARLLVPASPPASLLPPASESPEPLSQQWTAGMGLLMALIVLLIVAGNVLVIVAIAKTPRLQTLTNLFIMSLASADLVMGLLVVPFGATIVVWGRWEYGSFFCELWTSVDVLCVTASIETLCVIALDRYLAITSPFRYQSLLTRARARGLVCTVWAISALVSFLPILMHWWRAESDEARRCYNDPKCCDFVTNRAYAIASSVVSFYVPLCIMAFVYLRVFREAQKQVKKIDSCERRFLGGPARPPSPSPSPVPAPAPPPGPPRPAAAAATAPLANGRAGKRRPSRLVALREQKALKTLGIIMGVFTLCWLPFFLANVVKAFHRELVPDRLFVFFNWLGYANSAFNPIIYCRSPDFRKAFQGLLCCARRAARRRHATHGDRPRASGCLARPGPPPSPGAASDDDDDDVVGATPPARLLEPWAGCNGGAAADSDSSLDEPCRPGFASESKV

[18] = biological target: T2, Alpha-1A adrenergic receptor (Homo sapiens) (UniProt P35348); conditions: Rattus norvegicus; Compound concentration 10.0 uM
T2 sequence (whole entry): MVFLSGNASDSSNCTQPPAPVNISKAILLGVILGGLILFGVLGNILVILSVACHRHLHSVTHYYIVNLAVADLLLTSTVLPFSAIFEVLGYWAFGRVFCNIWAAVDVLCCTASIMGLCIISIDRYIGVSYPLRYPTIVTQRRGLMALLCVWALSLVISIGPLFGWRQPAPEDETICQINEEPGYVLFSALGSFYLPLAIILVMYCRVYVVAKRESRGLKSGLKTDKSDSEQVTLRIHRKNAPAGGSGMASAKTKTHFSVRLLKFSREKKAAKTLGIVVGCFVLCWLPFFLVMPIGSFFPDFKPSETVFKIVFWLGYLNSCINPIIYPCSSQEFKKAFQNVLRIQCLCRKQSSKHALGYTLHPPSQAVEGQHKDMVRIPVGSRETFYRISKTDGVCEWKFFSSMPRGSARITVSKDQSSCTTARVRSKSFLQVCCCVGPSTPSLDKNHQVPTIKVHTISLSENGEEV

[19] = biological target: Melatonin receptor type 1A (Homo sapiens) (UniProt P48039); experiment: Inhibition of Melatonin MT1 at 10 µM in the Eurofins-Panlabs radioligand binding assay (Eurofins_assay_251600); parameters: ligand concentration 0.05 nM; conditions: Compound concentration 10.0 uM
Melatonin receptor type 1A (Homo sapiens), sequence (P48039 whole entry): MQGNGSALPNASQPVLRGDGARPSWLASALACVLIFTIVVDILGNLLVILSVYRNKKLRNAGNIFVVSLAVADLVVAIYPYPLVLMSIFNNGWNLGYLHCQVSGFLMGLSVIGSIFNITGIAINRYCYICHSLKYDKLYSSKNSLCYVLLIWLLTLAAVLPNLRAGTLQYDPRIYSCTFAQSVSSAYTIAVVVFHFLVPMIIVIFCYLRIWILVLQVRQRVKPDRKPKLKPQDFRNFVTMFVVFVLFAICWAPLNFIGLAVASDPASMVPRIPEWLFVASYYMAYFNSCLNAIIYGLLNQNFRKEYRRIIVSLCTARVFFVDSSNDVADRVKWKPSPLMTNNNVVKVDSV

[20] = biological target: Sodium-dependent noradrenaline transporter (Homo sapiens) (UniProt P23975); conditions: Compound concentration 10.0 uM
Sodium-dependent noradrenaline transporter (Homo sapiens), sequence (P23975 whole entry): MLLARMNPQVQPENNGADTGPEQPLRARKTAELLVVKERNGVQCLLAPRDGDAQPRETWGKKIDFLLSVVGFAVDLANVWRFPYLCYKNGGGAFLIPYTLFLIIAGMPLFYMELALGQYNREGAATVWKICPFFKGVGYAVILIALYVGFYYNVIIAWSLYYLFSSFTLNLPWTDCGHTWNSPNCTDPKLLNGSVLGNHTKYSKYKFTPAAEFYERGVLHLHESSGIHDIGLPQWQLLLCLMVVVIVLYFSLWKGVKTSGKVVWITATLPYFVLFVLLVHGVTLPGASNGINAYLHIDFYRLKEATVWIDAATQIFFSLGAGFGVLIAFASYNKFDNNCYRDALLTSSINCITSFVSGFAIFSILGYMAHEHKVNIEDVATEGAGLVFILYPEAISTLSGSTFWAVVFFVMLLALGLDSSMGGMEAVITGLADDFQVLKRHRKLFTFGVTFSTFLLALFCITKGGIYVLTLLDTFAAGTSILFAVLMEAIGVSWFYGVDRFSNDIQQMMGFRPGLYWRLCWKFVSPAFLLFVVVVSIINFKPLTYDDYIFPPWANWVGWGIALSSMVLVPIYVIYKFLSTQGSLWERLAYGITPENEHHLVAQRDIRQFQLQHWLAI

[21] = biological target: Acetylcholine receptor subunit alpha (Homo sapiens) (UniProt P02708); experiment: Inhibition of Nicotinic Acetylcholine D1, Bungarotoxin at 10 µM in the Eurofins-Panlabs radioligand binding assay (Eurofins_assay_258700); conditions: Compound concentration 10.0 uM
Acetylcholine receptor subunit alpha (Homo sapiens), sequence (P02708 whole entry): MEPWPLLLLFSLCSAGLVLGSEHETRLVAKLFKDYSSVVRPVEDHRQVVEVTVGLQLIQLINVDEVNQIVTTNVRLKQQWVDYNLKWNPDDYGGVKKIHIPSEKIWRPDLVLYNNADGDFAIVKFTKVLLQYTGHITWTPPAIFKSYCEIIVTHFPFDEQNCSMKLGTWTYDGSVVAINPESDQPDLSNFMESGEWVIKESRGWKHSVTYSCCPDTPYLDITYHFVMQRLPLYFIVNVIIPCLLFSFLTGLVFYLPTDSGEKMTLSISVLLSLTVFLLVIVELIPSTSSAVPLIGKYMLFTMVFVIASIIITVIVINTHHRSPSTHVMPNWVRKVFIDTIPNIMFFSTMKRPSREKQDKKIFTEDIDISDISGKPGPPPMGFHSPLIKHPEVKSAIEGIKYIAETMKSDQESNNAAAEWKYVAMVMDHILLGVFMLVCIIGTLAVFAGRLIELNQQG

[22] = biological target: L-type calcium channel, dihydropyridine site (Cav1.2 alpha-1C) (Homo sapiens, UniProt Q13936); experiment: Inhibition of Calcium Channel L-Type, Dihydropyridine at 10 µM in the Eurofins-Panlabs radioligand binding assay (Eurofins_assay_214600); parameters: ligand concentration 0.1 nM, non-specific ligand with concentration 1 µM Nitrendipine, incubation time 90 min, incubation temperature 25 °C; conditions: Wistar, rat, rat cerebral cortex preparation, probe [3H] Nitrendipine, 0.1 nM; compound concentration 10 uM; target entry is the homologue from another species
[23] = biological target: Glutamate receptor ionotropic, kainate (Rattus norvegicus) (UniProt P22756+Q01812+P42260+P42264+Q63273); experiment: Inhibition of Glutamate, Kainate at 10 µM in the Eurofins-Panlabs radioligand binding assay (Eurofins_assay_232700); conditions: Compound concentration 10.0 uM
[24] = biological target: Endothelin-1 receptor (Homo sapiens) (UniProt P25101); conditions: Compound concentration 10.0 uM
Endothelin-1 receptor (Homo sapiens), sequence (P25101 whole entry): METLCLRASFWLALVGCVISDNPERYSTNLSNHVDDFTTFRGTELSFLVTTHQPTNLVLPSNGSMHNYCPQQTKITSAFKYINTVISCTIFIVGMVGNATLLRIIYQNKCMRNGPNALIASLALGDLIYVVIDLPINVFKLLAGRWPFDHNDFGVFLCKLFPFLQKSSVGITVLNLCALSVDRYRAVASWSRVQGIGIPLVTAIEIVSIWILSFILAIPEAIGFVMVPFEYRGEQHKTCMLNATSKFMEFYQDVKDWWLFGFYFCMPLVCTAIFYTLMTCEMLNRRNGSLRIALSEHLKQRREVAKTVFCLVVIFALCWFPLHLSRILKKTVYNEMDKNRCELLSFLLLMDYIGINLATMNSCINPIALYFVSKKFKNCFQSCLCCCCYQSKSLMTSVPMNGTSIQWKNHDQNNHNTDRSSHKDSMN

5-hydroxytryptamine receptor 1E (Homo sapiens), sequence (P28566 whole entry): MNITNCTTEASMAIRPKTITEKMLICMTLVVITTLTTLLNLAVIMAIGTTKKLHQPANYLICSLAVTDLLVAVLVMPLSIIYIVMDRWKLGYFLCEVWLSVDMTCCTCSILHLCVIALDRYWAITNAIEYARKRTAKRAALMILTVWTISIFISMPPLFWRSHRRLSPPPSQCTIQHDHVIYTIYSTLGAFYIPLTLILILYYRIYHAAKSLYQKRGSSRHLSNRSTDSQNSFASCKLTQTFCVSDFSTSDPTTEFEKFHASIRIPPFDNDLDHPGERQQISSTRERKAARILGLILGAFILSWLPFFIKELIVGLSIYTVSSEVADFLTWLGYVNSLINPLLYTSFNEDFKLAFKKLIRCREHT

NS(=O)(=O)c1cc(NC(=O)C2(c3ccccc3Cl)CC2)ccc1Oc1cccc(Cl)c1 [BAY-207]
inhibition [1]: -1.46% | Ki [2]: 0.25 µM | pKi [2]: 6.62 | Ki [3]: 0.654 µM

NS(=O)(=O)c1cc(NC(=O)Cc2ccccc2)ccc1Oc1cccc(Cl)c1 [BAY-1797]
inhibition [4]: 6% | inhibition [5]: 4% | inhibition [6]: 14% | inhibition (Mus musculus): 24% | inhibition ([7]; Compound concentration 3.0 uM): 60% | inhibition ([7]; Compound concentration 10.0 uM): 81% | inhibition [8]: 21% | inhibition [9]: 2% | inhibition [10]: -6% | inhibition [11]: -2% | inhibition [12]: 8% | inhibition at 3 h, 10 µM [13]: 17% (not active) | Ki ([14]; read-out: Ki): 6.52 µM | Ki ([14]; read-out: pKi (converted)): 5.89 µM | inhibition [15]: 3% | inhibition [16]: 4% | inhibition [17]: 3% | inhibition [18]: 16% | inhibition [19]: 13% | inhibition [20]: 47% | inhibition [21]: -4% | inhibition at 90 min, 10 µM [22]: 21% (not active) | inhibition [23]: 3% | inhibition [24]: 3%
